Consider six compounds from patent publication US20220062233A1 (The Board of Trustees of the Leland Stanford Junior …, priority 2018, published 2022).

For series [1], the target named is T1, interaction between Supt4h and NGN (subunit of Supt5h) (Homo sapiens, UniProt O00267+P63272).
T1 construct: expressed in transfected cells
Briefly: Split Gaussia luciferase complementation assay (M2-8 Luciferase). The format is cell-based. Conditions: M2-8 cells. The method, boiled down: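 HEK293-derived M2-8 cells inducibly express Supt4h-Gluc1 and NGN-Gluc2 fragments (stabilizing mutations) on RheoSwitch ligand addition; ligand plus compound added 24 h after plating and left 24 h. Cells frozen, lysed with 10 μg/ml native coelenterazine, 1 h room temperature dark; complemented luciferase luminescence read.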

The subject of a further series is M2-8 cells. The series is described as follows: M2-8 Cell viability Assay. The format is cell-based. The following applies: at the concentration of 1000 nM.
Another series concerns mutant HTT. The series is described as follows: Mutant HTT assay in lymphoblastoid cells (LBC), Western blot. It is filed as cell-based, human. Conditions: read-out: LBC IC20 (nM) mHTT, 3 days compound treatment. The method, boiled down: (§1)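 HD patient lymphoblastoid cells (GM14044, 250 CAG repeats in mutant allele) treated with compound for 3 days. Lysates normalised by BCA, run on SDS-PAGE and immunoblotted: mutant HTT with anti-polyQ MW1, wild-type HTT with anti-Huntingtin antibody, TBP and tubulin also probed. Band intensities quantified by infrared imaging.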

In another series the test system is wild-type HTT. Briefly: Wild-type HTT assay in lymphoblastoid cells (LBC), Western blot. It is filed as cell-based, human. Conditions: 3 days compound treatment, read-out: LBC IC20 (nM) wtHTT. The method, boiled down:
as §1
For orientation: A western blot detects proteins with antibodies after separation by electrophoresis.

Series [2] has as its system Lymphoblastoid cells (GM14044). Briefly: LBC cell viability (Cell Titer-Glo). The following applies: at the concentration of IC20, 3-day compound treatment. It is filed as cell-based, human. Here is the method: Cell viability was determined by Cell Titer-Glo reagent (Promega, PRG9243). After 3-day compound treatment, 15 μl of cell suspension was taken out from plate and incubated with 10 μl of CTG reagent. The values of reaction mixture were detected by Tecan.
In general terms: In ATP-based viability assays light output follows the ATP content of the culture.

A further series concerns mouse hepatocytes. Briefly: In vitro metabolic stability in mouse hepatocytes. It is filed as in vitro ADME. How it is done: A. In Vitro Metabolic Stability in Hepatocyte
A compound's metabolic stability was assessed using mouse hepatocytes incubated with pre-defined concentration of test articles over several incubation period. The extent of metabolism was calculated from the disappearance of the test compound measured by liquid chromatography mass spectrometry (LC-MS), compared to that of 0-min control. After incubation, quench solutions including internal standards were added and analyzed by LC/MS. The elimination rate constant and intrinsic clearance (CLhepatocyte) values were calculated by linear regression of the compound elimination over the duration of incubation, normalized to the cell number in the given volume of incubation medium.

Take `OCCOCc1ccc(CN[C@@H]2CCCc3c2[nH]c2ccc(Br)cc32)cc1` (single isomer, unassigned) [Compound 28]: the IC50 (commonly the concentration at which inhibition is half-maximal) in series [1] is ≤ 0.1 µM. In the series with M2-8 cells, the “M2-8 Cell viability” value was “+ (cell viability is greater than 50% at the concentration of 1000 nM)”. Further, the concentration for an effect of 20% (IC20) (as a rule, the concentration needed for an effect of 20%) is < 100 nM with mutant HTT and > 1000 nM with wild-type HTT. In addition, in series [2], the “LBC viability at IC20” value is “* (cell viability is greater than 60% at the concentration of IC20)”. For the same compound, the “Mouse HepStability (CLhepatocyte)” value in the series with mouse hepatocytes is given as “A (CLhepatocyte <10 μl/min/10^6cells)”.

`OCc1ccc(CNC2CCCc3c2[nH]c2ccc(Br)cc32)cc1` (stereo not shown) [Compound 1]: the IC50 in series [1] is ≤ 0.1 µM. Moreover, the “M2-8 Cell viability” value in the series on M2-8 cells is recorded as “+ (cell viability is greater than 50% at the concentration of 1000 nM)”. For the same compound, the IC20 in the series with mutant HTT was 101 to 300 nM; in the series on wild-type HTT, > 1000 nM. The “LBC viability at IC20” value in series [2] is recorded as “* (cell viability is greater than 60% at the concentration of IC20)”. In the series on mouse hepatocytes, the “Mouse HepStability (CLhepatocyte)” value is on record as “C (CLhepatocyte >30 μl/min/10^6cells)”.

`OCc1ccc(CN[C@@H]2CCCc3c2[nH]c2ccc(Br)cc32)cc1` [Compound 2, (R)-(4-(((6-bromo-2,3,4,9-tetrahydro-1H-carbazol-1-yl)amino)methyl)phenyl)methanol]: in series [1], the 50% inhibitory concentration (IC50) was ≤ 0.1 µM. Moreover, the “M2-8 Cell viability” value with M2-8 cells is recorded as “+ (cell viability is greater than 50% at the concentration of 1000 nM)”. Moreover, the values for the concentration for an effect of 20% (IC20) in the series with mutant HTT and in the series on wild-type HTT were < 100 nM and > 250 nM, respectively. Moreover, the “LBC viability at IC20” value in series [2] was “* (cell viability is greater than 60% at the concentration of IC20)”. In addition, the “Mouse HepStability (CLhepatocyte)” value in the series with mouse hepatocytes is on record as “C (CLhepatocyte >30 μl/min/10^6cells)”. Further, the “elimination in in vitro hepatocyte stability assay (comparison)” value in the series with mouse hepatocytes (compound #2 versus deuterated compound #42, FIG. 1A) is “more rapidly eliminated”.

Regarding `CC(C)(O)c1ccc(CN[C@@H]2CCCc3c2[nH]c2ccc(Br)cc32)cc1` [Compound 31, (R)-2-(4-(((6-bromo-2,3,4,9-tetrahydro-1H-carbazol-1-yl)amino)methyl)phenyl)propan-2-ol], in series [1], the IC50 was ≤ 0.1 µM. In the series on M2-8 cells, the “M2-8 Cell viability” value is “+ (cell viability is greater than 50% at the concentration of 1000 nM)”. Further, the IC20 in the series with mutant HTT is < 100 nM; with wild-type HTT it was > 250 nM. In addition, the “LBC viability at IC20” value in series [2] is “* (cell viability is greater than 60% at the concentration of IC20)”. In the series with mouse hepatocytes, the “Mouse HepStability (CLhepatocyte)” value is “A (CLhepatocyte <10 μl/min/10^6cells)”.

For the compound `[2H]C([2H])(O)c1ccc(CN[C@@H]2CCCc3c2[nH]c2ccc(Br)cc32)cc1` [Compound 42, (R)-(4-(((6-bromo-2,3,4,9-tetrahydro-1H-carbazol-1-yl)amino)methyl)phenyl)methan-d2-ol], in series [1], the IC50 was ≤ 0.1 µM. For the same compound, the “M2-8 Cell viability” value in the series on M2-8 cells is given as “+ (cell viability is greater than 50% at the concentration of 1000 nM)”. Further, the 20% effect concentration (IC20) in the series on mutant HTT was < 100 nM; in the series on wild-type HTT, > 1000 nM. Besides, in series [2], the “LBC viability at IC20” value is “* (cell viability is greater than 60% at the concentration of IC20)”. Also, the “Mouse HepStability (CLhepatocyte)” value in the series with mouse hepatocytes was “C (CLhepatocyte >30 μl/min/10^6cells)”.

`CS(=N)(=O)c1ccc(CN[C@@H]2CCCc3c2[nH]c2ccc(Br)cc32)cc1` (stereo partly drawn) [Compound 49, (4-((((R)-6-bromo-2,3,4,9-tetrahydro-1H-carbazol-1-yl)amino)methyl)phenyl)(imino)(methyl)-λ^6-sulfanone]: in series [1], the half-maximal inhibitory concentration (IC50) was ≤ 0.1 µM. The “M2-8 Cell viability” value with M2-8 cells is reported as “+ (cell viability is greater than 50% at the concentration of 1000 nM)”. The concentration for an effect of 20% (IC20) in the series with mutant HTT is 101 to 300 nM; in the series with wild-type HTT, > 500 nM. Moreover, the “LBC viability at IC20” value in series [2] was “* (cell viability is greater than 60% at the concentration of IC20)”. In addition, in the series on mouse hepatocytes, the “Mouse HepStability (CLhepatocyte)” value is reported as “B (CLhepatocyte 10-30 μl/min/10^6cells)”.
